Test systems include SNB-75 CNS; OVCAR-8 ovarian; BT-549 breast; M14 melanoma; COLO 205 colon; NCI/ADR-RES ovarian; K-562 leukemia; NCI-H522 lung; EKVX NSCLC; LOX IMVI melanoma.
What all share (assay): NCI tumour cell line growth inhibition, 48 h

“And” between values parts separate entries of the source, which are not always exact repeats. Equal entries are not always repeated.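 Values below derive from 48-hour exposures of cells grown in 96-well plates, with endpoints linearly interpolated between the two concentrations bracketing the appropriate inhibition level. GI50 is the concentration that inhibits growth by half. TGI: concentration producing complete growth inhibition.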

As to `COc1ccc2c(Cc3c4ccccc4cc4ccccc34)cncc2c1O`, the TGI in the test on SNB-75 CNS was determined as 29.4 µM; in the test on OVCAR-8 ovarian it was 5.74 µM; in the test on BT-549 breast, 53.1 µM; in the test on M14 melanoma, 15.3 µM; with COLO 205 colon it was 34.4 µM; in the test with NCI/ADR-RES ovarian, 9.17 µM. Further, the TGI was found to be 12.8 µM with K-562 leukemia, 21.2 µM in the test with NCI-H522 lung, 50.1 µM with EKVX NSCLC and 8.5 µM in the test with LOX IMVI melanoma.
Take `CN1CC[C@]2(c3cccc(O)c3)CC(=O)/C(=C/c3ccccc3)[C@H]1C2`: the GI50 with SNB-75 CNS is 3.89 µM; in the test on BT-549 breast, 3.64 µM; with COLO 205 colon it was 3.06 µM; in the test with NCI/ADR-RES ovarian, 2.42 µM; with EKVX NSCLC, 3.57 µM. Further, the TGI in the test with SNB-75 CNS turned out to be 14.4 µM; with OVCAR-8 ovarian, 9.46 µM; in the test on BT-549 breast, 14.5 µM; in the test on M14 melanoma, 9.46 µM; with COLO 205 colon it was 8.43 µM; in the test with NCI/ADR-RES ovarian, 7.35 µM. Further, the TGI with K-562 leukemia is 17.7 µM; with NCI-H522 lung it was 7.76 µM; in the test with EKVX NSCLC it was 13.9 µM; with LOX IMVI melanoma it was 4.1 µM.
Turning to `COc1cc(/C=C2\Oc3cc(OCCCN4CCCC4)ccc3C2=O)cc(OC)c1`, the GI50 was 11 µM with SNB-75 CNS; 3.71 µM with OVCAR-8 ovarian; 8.76 µM in the test on BT-549 breast; 1.83 µM with M14 melanoma; 2.58 µM in the test with COLO 205 colon; 6.17 µM in the test with NCI/ADR-RES ovarian. Further, the GI50 in the test with K-562 leukemia is 2.3 µM; with NCI-H522 lung, 14.2 µM; in the test with EKVX NSCLC it was 9.6 µM; in the test on LOX IMVI melanoma, 1.6 µM. In addition, the TGI in the test on SNB-75 CNS stood at 22.9 µM; with OVCAR-8 ovarian, 15.4 µM; in the test on BT-549 breast, 21.7 µM; in the test with M14 melanoma, 3.75 µM; in the test on COLO 205 colon it was 8.3 µM; with NCI/ADR-RES ovarian, 21.6 µM. For the same molecule, the TGI in the test with K-562 leukemia is 7.69 µM; in the test with NCI-H522 lung, 32.7 µM; in the test with EKVX NSCLC, 21.9 µM; in the test on LOX IMVI melanoma, 3.05 µM.
On to `CSc1ccc2c(c1)N(CCC1CCCCN1C)c1ccccc1S2` (stereo not given), for which the GI50 with SNB-75 CNS was 5.64 µM and 3.49 µM; in the test on OVCAR-8 ovarian, 11.9 µM and 10.3 µM; in the test with BT-549 breast, 12.7 µM and 3.23 µM; in the test on M14 melanoma, 2.17 µM and 1.85 µM; in the test with COLO 205 colon, 6.22 µM and 3.57 µM; with NCI/ADR-RES ovarian, 10.4 µM and 4.76 µM. In addition, the GI50 in the test with K-562 leukemia is 2.13 µM; with NCI-H522 lung it was 6.29 µM; with EKVX NSCLC it was 7.93 µM and 8.06 µM; with LOX IMVI melanoma, 3.44 µM and 1.78 µM. The TGI in the test on SNB-75 CNS is 22.1 µM and 12.3 µM; in the test on OVCAR-8 ovarian it was 27.5 µM and 29.3 µM; in the test with BT-549 breast, 27.7 µM and 10.4 µM; with M14 melanoma it was 4.89 µM and 3.76 µM; in the test on COLO 205 colon, 24 µM and 13.2 µM; with NCI/ADR-RES ovarian it was 24.1 µM and 18.5 µM. The TGI was 4.4 µM with K-562 leukemia; 21.8 µM in the test on NCI-H522 lung; 23.5 µM and 22.7 µM in the test on EKVX NSCLC; 14.8 µM and 3.34 µM in the test on LOX IMVI melanoma.
With `O=C(c1ccco1)c1c(C(F)(F)F)nc2ccc(C(F)(F)F)cc2[n+]1[O-]`, the GI50 in the test with SNB-75 CNS is 16.9 µM; in the test on OVCAR-8 ovarian, 35.3 µM; with BT-549 breast, 24.1 µM; with M14 melanoma, 35.8 µM; with COLO 205 colon, > 100 µM; in the test on NCI/ADR-RES ovarian, 44.2 µM. For the same molecule, the GI50 in the test on K-562 leukemia was > 73.8 µM; in the test on NCI-H522 lung, 62.1 µM; in the test on EKVX NSCLC, 19.9 µM; in the test with LOX IMVI melanoma it was 47.8 µM. The TGI with SNB-75 CNS was 36.4 µM; with OVCAR-8 ovarian, > 100 µM; with BT-549 breast, 59.8 µM; in the test with M14 melanoma, > 100 µM; in the test with COLO 205 colon it was > 100 µM; in the test on NCI/ADR-RES ovarian, > 100 µM. For the same molecule, the TGI is > 100 µM in the test on K-562 leukemia, > 100 µM in the test on NCI-H522 lung, > 69.6 µM in the test on EKVX NSCLC and > 100 µM in the test on LOX IMVI melanoma.
In the case of `O=C1CCCCC=C1C[N+](=O)[O-]`, the GI50 with SNB-75 CNS is 25.5 µM; in the test on OVCAR-8 ovarian, 26.6 µM; with BT-549 breast, 26 µM; in the test with M14 melanoma it was 19.3 µM; with COLO 205 colon, 11.6 µM; in the test with NCI/ADR-RES ovarian it was 36.3 µM. Moreover, the GI50 is 22.5 µM in the test with K-562 leukemia, 14.6 µM in the test with NCI-H522 lung, 34.5 µM in the test with EKVX NSCLC and 18.4 µM with LOX IMVI melanoma. The TGI in the test on SNB-75 CNS is 68.8 µM; in the test on OVCAR-8 ovarian, > 100 µM; in the test on BT-549 breast, 61.4 µM; in the test with M14 melanoma, 45 µM; with COLO 205 colon, 39.7 µM; in the test with NCI/ADR-RES ovarian it was > 100 µM. Also, the TGI is > 100 µM in the test on K-562 leukemia, 37 µM in the test on NCI-H522 lung, > 100 µM with EKVX NSCLC and 39.1 µM in the test with LOX IMVI melanoma.
